The subject of one experiment is pentylenetetrazole spasm. In words: Metrazole spasm. In kind it is in vivo. The following applies: mice, 30 mg/kg oral, pentylenetetrazole 125 mg/kg s.c., observation one hour. The protocol:
(§1) For the pharmacological tests CFLP (LATI) mice of both sexes, weighing 18 to 22 g each and male Han. Wistar (LATI) rats weighing 160 to 180 g each were used. The test materials were administered orally, in 30 mg/kg doses, in the form of a suspension containing 5% of Tween 80, one hour before the tests.
2. Metrazole spasm (mice)
After pretreatment the animals were administered 125 mg/kg of pentylenetetrazole subcutaneously.
Observation time: one hour (Everett L. M. and Richards R. K.: J. Pharmacol. Exp. Ther. 81, 402/1944/).

Experiment [1] concerns hyperthermia induced with Brewer's yeast. The experiment can be described thus: Antipyretic activity (Brewer's yeast hyperthermia). Type of experiment: in vivo, rats. The following applies: for ED50: Rattus norvegicus, po, read-out: Antipyretic activity, ED50. The protocol: as §1
5. Antipyretic activity (rats)
Hyperthermia is induced in rats with Brewer's yeast suspension (0.5% of Brewer's yeast, 1% of arabic gum in a volume of 0.3 ml, s.c.). The animals are treated with the test materials 4 hours later, and the tracheal temperature of the animals is registered with an ELAB thermometer (typ. TE-3) for 4 hours. The antipyretic activity is expressed in percentage of the animals which have an at least one centrigrade lower temperature than the average of the temperature of the control group treated with the solvent (Nimegeers C. J. E. et al.: Arzneimittel Forsch. 25:15/9/1975/).

In experiment [2] the test system is acetic acid-induced writhing syndrome. In words: Analgesic activity (acetic acid writhing syndrome). Type of experiment: in vivo, mice. The following applies: for Analgesic activity: 30 mg/kg oral, change in writhing frequency vs control. As to the method:
as §1
4. Analgesic activity (mice)
One hour after pretreatment, mice were administered 0.4 ml of a 0.6% acetic acid solution intraperitoneally, as a pain stimulus. The frequency of writhing syndrome is registered for 30 minutes. The changes observed as a result of treatment with the test compounds is related to the mean value of the frequency of writhing syndrome in the control group, and the difference is expressed in percentage (Koster R. et al.: Exp. Ther. 72:74/1941/).
On the technique in general: In writhing tests, fewer writhes than in controls are read as antinociception.

For the next experiment, the system named is tonic, extensoric spasm. In words: Maximum electroshock. Type of experiment: in vivo. The following applies: mice, 30 mg/kg oral, one hour before test. As to the method: as §1
1. Maximum electroshock (mice)
The shock was applied through a corneal electrode (20 mA, 0.2 msec, HSE Schockgerat typ. 207).

A word on the ED50: it is the midpoint of the dose-response relation. Turning to `COc1cc2c(cc1OC)C1C(CCl)CN1CC2.I` (stereo not shown) [Compound A, 1-(chloromethyl)-7,8-dimethoxy-1,4,5,9b-tetrahydro-2H-azeto[2,1-a]isoquinoline hydroiodide], the “Antispasm activity, metrazole, b (tonic extensoric spasm)” value (“Antispasm activity, metrazole, b” below) in the experiment on pentylenetetrazole spasm was determined as 20.0. The ED50 in experiment [1] was determined as 75 mg/kg. Moreover, in experiment [1] (rats), the “antipyretic potency relative to Na-salicylate” value was “one and a half-times more potent”. Moreover, the “decrease of the frequency of acetic acid-induced writhing syndrome” value in experiment [2] (mice, 30 mg/kg) is on record as “about 30%”. This molecule registered an Analgesic activity in experiment [2] (mice) of 30.0%.

Take `O=C(O)c1ccccc1O` [Na--salycilate, reference compound]: the “Antispasm activity, metrazole, b” value in the experiment on pentylenetetrazole spasm turned out to be 20.0. Besides, the ED50 in experiment [1] was determined as 110 mg/kg; in experiment [2] (Mus musculus, po, read-out: Analgesic activity, ED50), 113 mg/kg. Further, the “analgesic effect in words” value in experiment [2] (30 mg/kg) is listed as “ineffective”.

As to `CCOc1cc2c(cc1OCC)C1C(CCl)CN1CC2.Cl` (stereo not shown) [Compound B, 1-(chloromethyl)-7,8-diethoxy-1,4,5,9b-tetrahydro-2H-azeto[2,1-a]isoquinoline hydrochloride], the “Antispasm activity, metrazole, b” value with pentylenetetrazole spasm is 24.0. The Antipyretic activity in experiment [1] (rats, 30 mg/kg oral, % of animals with at least one centigrade lower temperature than control) is 30.0%. Further, the “Antispasm activity, max. electroshock” value with tonic, extensoric spasm is 20.0. This molecule also returned an Analgesic activity in experiment [2] (mice) of 20.0%.

The values above are taken from patent US4622327A, “2H-azeto[2,1-a]-isoquinoline derivatives and pharmaceutical compositions containing them” (Richter Gedeon Vegyeszeti Gyar R.T., priority 1983, dated 1986).
